Data published in patent US10014546B2 (priority 2012, dated 2018).
Like-named read-outs stand apart in the source and are kept apart here.

Tests used:
[1] = assay type: physicochemical

## O.O.O.O.O.O.[Fe+3] [Fe^III/II(H2O)6, reference compound]
[1]; pH 0
  E1/2, V vs. RHE: +0.77 V vs. RHE

## Oc1cccc2c1[O][Ti-2]13([O]2)([O]c2cccc(O)c2[O]1)[O]c1cccc(O)c1[O]3.[K+].[Na+] [Ti(pyrogallate)^2−/3−, Sodium potassium titanium(IV) trispyrogallate]
[1]; pH 9.8
  E1/2, V vs. RHE: −0.55 V vs. RHE

## CC(O)C(=O)[O-].CC(O)C(=O)[O-].O=C([O-])c1ccccc1O.[Ti+3] [Ti^IV/III(lactate)2(salicylate), titanium bis-lactate mono-salicylate]
physchem
  solubility: ≥ 1500 mM

## Sodium titanium(IV) triscitrate [Ti(citrate)3^2−/3−]
[1]; pH 5
  E1/2, V vs. RHE: −0.04 V vs. RHE

## iron tris-(α-hydroxyacetate) [Fe^III/II(α-hydroxyacetate)3]
[1]; pH 8.1
  E1/2, V vs. RHE: −0.50 V vs. RHE

## iron tris-malate [Fe^III/II(malate)3]
[1]; pH 9.2
  E1/2, V vs. RHE: −0.30 V vs. RHE

## titanium bis-lactate [Ti^IV/III(lactate)2]
[1]; pH 2
  E1/2, V vs. RHE: −0.03 V vs. RHE
[1]; pH 3.6
  E1/2, V vs. RHE: −0.40 V vs. RHE
[1]; pH 9
  E1/2, V vs. RHE: −0.40 V vs. RHE

## titanium mono-lactate [Ti^IV/III(lactate)1]
[1]; pH 3.6
  E1/2, V vs. RHE: −0.34 V vs. RHE
[1]; pH 5.6
  E1/2, V vs. RHE: −0.40 V vs. RHE
[1]; pH 9
  E1/2, V vs. RHE: −0.54 V vs. RHE
